Key:
[1] = in vivo; assay type: in vivo, rats (Sprague Dawley strain); details: rat, in vivo; oral, rats; dose at which Δ% was determined; read-out: Maximum action: Dose (highest non-toxic dose)
Experimental: (§1) To determine the anti-arrhythmic activity, the drugs were administered orally to rats (Sprague Dawley strain, weight […]) 45 minutes before the start of the narcosis.
(§2) The animals were narcotized with thiobutabartital (100 mg/kg administered intraperitoneally). The arrhythmogenic substance used was aconitine, which was administered by intravenous infusion (at a rate of 0.005 mg/kg. min) 60 minutes after administration of the test substance. In the case of untreated animals (N=30), arrhythmias occurred after an average of 3.7±0.9 minutes, the commencement of which can be delayed by anti-arrhythmic agents, the delay depending on the dosage.
(§3) For a quantitative evaluation of the linear relation between log dose (mg/kg) of the test substances and the relative prolongation of the duration of aconitine infusion (Δ%), the dose which extended the duration of infusion by 50% (ED 50) was determined. The prior art anti-arrhythmic agent quinidine served as a comparative substance.

[2] = system: Aconitine-induced arrhythmia; experiment: animal or person; assay type: in vivo, rats (Sprague Dawley strain); details: for ED50: Rattus norvegicus, po, 1 h, read-out: ED 50: dose, administered orally, which prolongs the duration of aconitine infusion by 50%; for antiarrhythmic action (in words): as such and/or as acid addition salts
Experimental: as §1, §2, §3

[3] = acute toxicity (LD 50, Probit analysis, death within 24 hours); details: mouse, in vivo; for LD50 at 24 h: ip, intraperitoneal, female Swiss mice; for selectivity ratio: footnote 7 formula given as drawing 13, values correspond to LD 50 (mice, i.p.) / ED 50 (rats, oral), read-out: Therapeutic range
Experimental: The acute toxicity was determined on groups of 10 or 20 female Swiss mice, weighing 20-26 g, the compounds being administered intraperitoneally.

| SMILES | MTD [1] [mg/kg] | ED50 [2] [mg/kg] | antiarrhythmic action (in words) [2] | LD50 at 24 h [3] [mg/kg] | selectivity ratio [3] |
| --- | --- | --- | --- | --- | --- |
| Cc1nc(Cc2ccccc2)c2c(c1OCCCNC(C)C)COC2 [Example IV, 4-benzyl-6-methyl-1,3-dihydro-furo[3,4-c]pyridin-7-yl 3-isopropylamino-propyl ether] | 215 | 28.9 | have an antiarrhythmic action | 139 | 4.81 |
| CN(C)CCCOc1c(Cc2ccccc2)nc(Cc2ccccc2)c2c1COC2 [III, 4,6-dibenzyl-1,3-dihydrofuro[3,4-c]pyridin-7-yl 3-dimethylaminopropyl ether] | 215 | 14.9 | have an antiarrhythmic action | 98.3 | 6.6 |
| C=C[C@H]1C[N@@]2CC[C@H]1C[C@@H]2[C@@H](O)c1ccnc2ccc(OC)cc12 [Quinidine, quinidine, reference compound] |  | 42.3 |  | 180 |  |
| Cc1nc(Cc2ccccc2)c2c(c1OCCCCNC(C)C)COC2 [V, 4-benzyl-6-methyl-1,3-dihydro-furo[3,4-c]pyridin-7-yl 4-isopropylaminobutyl ether] | 100 | 5.66 | have an antiarrhythmic action | 99.3 | 17.5 |
| Cc1nc(Cc2ccccc2)c2c(c1OCCC(C)CCNC(C)C)COC2 (centres unmarked) [VI, 4-benzyl-6-methyl-1,3-dihydrofuro[3,4-c]pyridin-7-yl 5-isopropylamino-(3-methylpentyl) ether] | 100 | 12.2 | have an antiarrhythmic action | 82.2 | 6.74 |
| CCN(CC)CCC(C)CCOc1c(C)nc(Cc2ccccc2)c2c1COC2 (centres unmarked) [VII, 4-benzyl-6-methyl-1,3-dihydro-furo[3,4-c]pyridin-7-yl 5-diethylamino-(3-methylpentyl) ether] | 100 | 11.3 | have an antiarrhythmic action | 88.9 | 7.86 |
| Cc1nc(Cc2ccccc2)c2c(c1OCCCCNC(C)(C)C)COC2 [VIII, 4-benzyl-6-methyl-1,3-dihydrofuro[3,4-c]pyridin-7-yl 4-tert.-butylamino-butyl ether] | 46.4 | 9.29 | have an antiarrhythmic action | 73.9 | 7.95 |
